# Data from patent US5958903A, “Galanthamine derivatives, and their pharmaceutical compositions” (priority 1995, dated 1999).
# Biological target: T1, acetylcholinesterase (Electrophorus electricus, UniProt O42275)
# T1 construct: purchased SIGMA C 2888; host or cells: electric organ of Electrophorus electricus
# Test: cholinesterase inhibitory activity: acetylcholinesterase activity by the Ellman method
# Assay type: biochemical
# Conditions: acetylthiocholine iodide substrate, DTNB, phosphate buffer pH 8, 25° C., absorbance at 412 nm; read-out: IC50 ± SD (inhibitory concentration at 50% activity of the enzyme)
# Experimental: In order to measure the cholinesterase inhibitory activity of the compounds of the invention, the enzymatic activity of acetylcholinesterase is evaluated by the Ellman method (Biochemical Pharmacology, 1961, Vol. 7 pp 88-95, Ellman et al.).
# The principle of the method comprises measuring the rate of thiocholine at the time of hydrolysis of the acetylcholine by the enzyme. The hydrolysis is accompanied by a continuous reaction between thiocholine and 5,5'-dithio-2-nitrobenzoic acid (DTNB) which leads to the formation of the yellow colored 5-thio-2-nitrobenzoate anion. The rate of the formation of the anion is measured by absorbance at 412 nm.
# The material used is comprised of a 0.1 M (pH 8) phosphate buffer: Na2 HPO4 /NaH2 PO4, an enzyme: acetylcholinesterase from the electrical organ of the electric ray Electrophorus electricus (SIGMA C 2888) purified on Sephadex resin, a substrate: acetylthiocholine iodide 7.5 mM (21.67 mg/10 ml of phosphate buffer) and a reagant: 5,5'-dithio-2-nitrobenzoic acid (DTNB) 10 mM (39.6mg / 10 ml of phosphate buffer).
# Thus 3 ml of phosphate buffer, 100 μl of DTNB, 2 μl enzyme, 3.3 μl of the compound according to the invention, and 200 μl of substrate are mixed at 25° C., subsequently the change of absorbance at 412 nm is measured immediately.
# T1 sequence (O42275 24-633): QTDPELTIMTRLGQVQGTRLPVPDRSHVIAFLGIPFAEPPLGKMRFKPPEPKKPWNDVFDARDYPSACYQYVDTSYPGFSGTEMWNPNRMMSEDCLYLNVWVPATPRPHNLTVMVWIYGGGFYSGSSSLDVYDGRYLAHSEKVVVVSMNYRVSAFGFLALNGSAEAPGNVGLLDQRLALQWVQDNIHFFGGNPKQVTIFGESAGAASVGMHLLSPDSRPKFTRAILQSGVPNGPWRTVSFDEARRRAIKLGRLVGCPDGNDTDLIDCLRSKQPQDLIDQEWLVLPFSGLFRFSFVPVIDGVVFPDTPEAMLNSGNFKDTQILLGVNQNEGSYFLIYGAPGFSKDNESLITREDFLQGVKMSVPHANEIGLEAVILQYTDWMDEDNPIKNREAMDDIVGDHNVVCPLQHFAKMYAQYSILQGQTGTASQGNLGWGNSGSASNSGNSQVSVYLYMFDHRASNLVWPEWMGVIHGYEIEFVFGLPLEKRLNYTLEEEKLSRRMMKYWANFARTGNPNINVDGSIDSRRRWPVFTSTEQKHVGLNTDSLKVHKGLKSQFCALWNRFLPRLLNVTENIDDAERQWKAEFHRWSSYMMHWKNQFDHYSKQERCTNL
row,Compound,IC50 [µM]
1,"COc1ccc2c3c1O[C@H]1C[C@@H](O)C=C[C@@]31CC[N+](CCCCCCn1cccc1)=C2 [Example 11, 10-N-demethyl-10-N-(6'pyrrolohexyl)-galanthaminium bromohydrate]",0.17 ± 0.01
2,"COc1ccc2c3c1O[C@H]1C[C@@H](O)C=C[C@@]31CC[N+](C)=C2 [Example 1, galanthaminium methanesulfonate]",0.08 ± 0.002
